Assay results: paper PMC7606612, “Identification of HMGA2 inhibitors by AlphaScreen-based ultra-high-throughput screening assays” (Scientific Reports, 2020)
“And” between values parts separate entries of the source, which are not always exact repeats. Equal values may be shown once.

How the values were obtained:
[1] = biological target: “AT-hook” peptide 3 (ATHP3) (Homo sapiens, UniProt P52926); experiment: Isothermal titration calorimetry (ITC), titration into ATHP3; format: binding
Description: (§1) ITC experiments were conducted using a VP-ITC titration calorimeter (MicroCal, Inc., Northampton, MA) interfaced to a PC. Origin 7.0, supplied by the manufacturer was used for data acquisition. […] The heat liberated or absorbed is observed as a peak corresponding to the power required keeping the sample and reference cells at identical temperatures. The peak produced during the injection is converted to heat output by integration and corrected for cell volume and sample concentration. […] The net enthalpy for the titration reaction was determined by subtraction of the component heats of dilution.

BTSC#83 = experiment: Growth curves (CellTiter), BTSC#83; format: cell-based; conditions: up to 200 μM
Description: (§2) BTSC#83 and BTSC#30p and their culture conditions have been described. For growth curves, suspension cultures were mechanically disaggregated and filtered through 37 µm filters (StemCell Technologies, Vancouver, Canada) in order to obtain bona fide single-cell suspension. […] Cell growth was assayed at the indicated time using the CellTiter Assay System (Promega). The growth conditions of 8505c anaplastic thyroid carcinoma cells and mouse Embryonic Fibroblasts (MEFs) knock-out for HMGA1, HMGA2, and HMGA1/A2 double mutant have been described previously[42],[64]. P values were calculated by using two-way ANOVA followed by Sidak’s multiple comparison test.

BTSC#30p [2] = experiment: Western blotting and qRT-PCR expression analysis, BTSC#30p; format: cell-based
Description: The single-cell suspension was obtained by mechanical disaggregation of the spheres and total proteins were extracted 48 h later, as previously described. After separation by SDS–polyacrylamide gel electrophoresis, proteins were blotted on nitrocellulose membranes (GE Healthcare Europe Gmb) and hybridized with the following antibodies: anti-HMGA1, anti-HMGA2 (Genetex) or affinity-purified anti-HMGA2, anti-α-actin (SantaCruz Biotechnologies). The single-cell suspension was obtained by mechanical disaggregation of the spheres and RNA was extracted 48 h later, by using Direct-zol RNA MiniPrep (Zymo Research). One μg of RNA was retrotranscribed, by using QuantiTect® Reverse Transcription Kit (Qiagen) and qRT-PCR was performed as described. The 2^–ΔΔCt formula was used to calculate the differential gene expression.

HMGA2-DNA interactions = biological target: T1, HMGA2-DNA interactions (Mus musculus, UniProt P52927); experiment: AlphaScreen primary uHTS assay of His-tagged HMGA2 binding to biotin-labeled DNA oligomer FL814; design: species or system mammalian
T1 construct: made in house
T1 sequence (P52927 2-108 limits assumed): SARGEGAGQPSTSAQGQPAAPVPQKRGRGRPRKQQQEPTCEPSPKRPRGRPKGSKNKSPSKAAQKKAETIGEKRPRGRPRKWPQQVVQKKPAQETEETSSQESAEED
Description: To address these limitations, we established a new assay using AlphaScreen technology. The assay entails binding a biotin-labeled DNA oligomer FL814 and His-tagged HMGA2 to streptavidin-coated donor beads and nickel chelate (Ni-NTA) acceptor beads, respectively (Fig. 1). A series of DNA binding studies were performed to determine the optimal conditions for the AlphaScreen Primary Assay (Fig. S1a–d). […] These two inhibitors are readily available for purchase and served as positive controls for HMGA2-DNA interaction inhibition in the assay.
Using a Labcyte Echo 555 acoustic dispenser 5 nL of DMSO were added to columns 1–4 and 45–48 of a white 1536 well plate, while 5 nL of 2 mM compounds in DMSO were added to columns 5–44. Using a Beckman BioRAPTR FRD bulk reagent dispenser 1 µL of assay buffer (30 mM Citrate, 300 mM NaCl, and 0.005% Tween 20) was added to columns 1 and 2. Next 1 µL of assay buffer containing 125 nM HMGA2 was added to columns 3–48 with a Beckman BioRAPTR FRD bulk reagent dispenser. Finally, 1 µL of assay buffer containing 25 nM FL814 was added to every well of the plate using a Beckman BioRAPTR FRD bulk reagent dispenser. The plate was then centrifuged at 200 × g for 1 min. After 30 min at room temperature, 2 µL of bead buffer (10 mM HEPES, 300 mM NaCl and 0.005% Tween 20) containing 20 µg/mL anti-6xHIS acceptor beads and 20 µg/mL streptavidin donor beads were dispensed into every well using a Beckman BioRAPTR FRD bulk reagent dispenser. The plates were then centrifuged at 200 × g for 1 min. After 1 h at room temperature the plates were read on a Perkin Elmer Envision multimode plate reader in AlphaScreen mode.

HMGA2 = biological target: T2, HMGA2 (Mus musculus, UniProt P52927); experiment: Isothermal titration calorimetry (ITC), titration into HMGA2; format: binding, mammalian; conditions: for HMGA2 Binding site: number of sites
T2 construct: made in house
T2 sequence (P52927 2-108 limits assumed): T1 sequence (P52927 2-108 limits assumed)
Description: as §1

BTSC#30p [3] = experiment: Growth curves (CellTiter), BTSC#30p; format: cell-based; conditions: up to 200 μM
Description: as §2

[4] = system: anaplastic thyroid carcinoma cell line 8505c; experiment: Chromatin immunoprecipitation (ChIP) of HMGA2 on ID2 promoter regions A and B; format: cell-based, human; conditions: 6 days
Excerpt: The role of HMGA1 and HMGA2 in regulating ID2 transcription was confirmed by analyzing its expression in mouse embryonic fibroblasts (MEFs) knock-out for HMGA1, HMGA2, and the A1/A2 double mutant, respectively. […] We identified two AT-rich regions, hereafter indicated as “region A” and “region B”, in the human ID2 promoter, containing the HMGA2 consensus sequence[26] (Table S2) for our ChIP experiments. Due to availability, the high proliferation rate, and the expression of HMGA proteins, the anaplastic thyroid carcinoma cell line 8505c was used.
Chromatin immunoprecipitation was performed as described. Briefly, for each sample, 5 × 10^6 cells were collected by trypsinization and cross-linked with 1% formaldehyde; after sonication, the samples were immunoprecipitated with 10 µL anti-HMGA2 antibody (Genetex) or with control normal rabbit IgG and the chromatin was extracted. qPCR amplification was performed on 6 µL of immunoprecipitated DNA, using primers amplifying regions A and B of the ID2 promoter (Table S2). Ct values of samples precipitated with anti-HMGA2 and IgG antibodies were normalized with Ct values of input DNA. Fold change enrichment was calculated in comparison to normalized IgG, using the 2^−ΔΔCt formula. P values were calculated by using one-way ANOVA followed by Sidak’s multiple comparison test.

[5] = no reference given; cited from earlier work

For Cc1ccc(C(=O)Nc2ccc(S(=O)(=O)O)c3cc(S(=O)(=O)O)cc(S(=O)(=O)O)c23)cc1NC(=O)c1cccc(NC(=O)Nc2cccc(C(=O)Nc3cc(C(=O)Nc4ccc(S(=O)(=O)O)c5cc(S(=O)(=O)O)cc(S(=O)(=O)O)c45)ccc3C)c2)c1 [suramin], the “− TΔS” value [1] was 6.75 kcal/mol, the Kd ([1]; first line, read-out: ATHP3 Ka (M^−1) (converted)) was 0.0246 µM and the “ATHP3 Binding site” value ([1]; number of sites, first line) was 0.98. The cell growth (BTSC#83) was “did not significantly affect the cell growth”, the ID2 expression (BTSC#30p [2]; 100 μM for 48 h) was “induces reduction in ID2 expression” and the “expression of HMGA1” value (BTSC#30p [2]; Western blotting and qRT-PCR) was “slightly reduced”. For the same compound, the “expression of HMGA2” value (BTSC#30p [2]; Western blotting and qRT-PCR) was “slightly reduced”, the “expression of SNAIL” value (BTSC#30p [2]; qRT-PCR, 100 µM for 48 h) was “significantly reduced” and the “expression of ID2” value (BTSC#30p [2]; qRT-PCR, 100 µM for 9 days) was “significantly reduced”. For the same compound, the “expression of MSI1” value (BTSC#30p [2]; qRT-PCR, 100 µM for 9 days) was “significantly reduced”, the “expression of OLIG2” value (BTSC#30p [2]; qRT-PCR, 100 µM for 9 days) was “increased” and the inhibition at 5 µM (HMGA2-DNA interactions; LOPAC1280 screen, final concentration of 5 µM) was at least 50%. For the same compound, the “inhibition of HMGA2-DNA interactions (in words)” value (HMGA2-DNA interactions; confirmed hits that do not bind to DNA) was “strongly inhibit HMGA2-DNA interactions”, the IC50 (HMGA2-DNA interactions; titration, HMGA2-FL814 interactions, Fig. 3a) was 2.58 µM and 2.6 µM and the “–TΔS” value (HMGA2; first type of binding sites) was 5.56 kcal/mol. The “HMGA2 Binding site” value (HMGA2; first type) was “three”, the “HMGA2 Binding site” value (HMGA2; first type, listed as Suramin) was 2.81 and the “HMGA2 Binding site” value (HMGA2; second type) was “two”. For the same compound, the “HMGA2 Binding site” value (HMGA2; second type, listed as Suramin) was 2, the “− TΔS” value (HMGA2; second type of binding sites) was 0.24 kcal/mol and the Kd (HMGA2; second type of binding sites, read-out: HMGA2 Ka (M^−1) (converted)) was 23 µM. For the same compound, the “total of suramin binding sites on HMGA2” value (HMGA2; two types, confirmed by mass spectrometry) was “five”, the cell growth (BTSC#30p [3]) was “did not significantly affect the cell growth” and the “HMGA2 binding to ID2 promoter regions A and B (ChIP)” value ([4]; 100 µM) was “did not detect significant HMGA2 binding reduction”. For the same compound, the “HMGA2 binding to ID2 promoter regions A and B (ChIP)” value ([4]; 200 µM) was “drastic reduction in the enrichment” and the oral bioavailability [5] was “not orally bioavailable”.
